Data as given in the supplement of paper PMC10307832.

Legend:
Experiment in all cases: relative viability (nuclei count vs DMSO), 5 days (fraction); higher = more cells survive
[1] = compound: CC1=NC=CC(=C1)C2=CC=C(C=C2)CC(=O)NC3=CC=C(C=C3)C4=CN=CC=C4 [Wnt-C59] + COc1cccc2cc(-c3nc([C@H]4CC[C@H](C(=O)O)CC4)n4ncnc(N)c34)[nH]c12 [OSI-027] (partner 0.5 µM)
Outline: (§1)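 Nuclei were stained with Hoechst during a one-step fixation (final 0.05% Triton X-100, 1% formaldehyde, 1 ug/ml Hoechst) carried out 5 days after dosing, then counted on 4× images. The cells, lung cancer lines in 1536-well plates, had been dosed by pin tool the day after seeding with one drug alone or a fixed anchor-drug dose plus five library-drug doses (not always all listed) in √10 steps. Relative viability is the nuclei count in treated wells divided by that in vehicle wells, and each value is the median of duplicate plates.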

[2] = compound: CC1=NC=CC(=C1)C2=CC=C(C=C2)CC(=O)NC3=CC=C(C=C3)C4=CN=CC=C4 [Wnt-C59] + C[C@]1(O)C[C@@H](c2nc(-c3ccc4ccc(-c5ccccc5)nc4c3)c3c(N)nccn32)C1 [Linsitinib] (partner 1 µM)
Outline: as §1

[3] = compound: CS(=O)(=O)CCNCc1ccc(-c2ccc3ncnc(Nc4ccc(OCc5cccc(F)c5)c(Cl)c4)c3c2)o1 [Lapatinib] + CC(=O)c1c(C)c2cnc(Nc3ccc(N4CCNCC4)cn3)nc2n(C2CCCC2)c1=O [Palbociclib] (partner 0.5 µM)
Outline: as §1

[4] = compound: CS(=O)(=O)CCNCc1ccc(-c2ccc3ncnc(Nc4ccc(OCc5cccc(F)c5)c(Cl)c4)c3c2)o1 [Lapatinib] + C[C@]1(O)C[C@@H](c2nc(-c3ccc4ccc(-c5ccccc5)nc4c3)c3c(N)nccn32)C1 [Linsitinib] (partner 1 µM)
Outline: as §1

Cell Line | relative viability ([1]; first compound 0.001 µM) | relative viability ([1]; first compound 0.01 µM) | relative viability ([1]; first compound 0.03162 µM) | relative viability ([1]; first compound 0.1 µM) | relative viability ([2]; first compound 0.001 µM) | relative viability ([2]; first compound 0.01 µM) | relative viability ([2]; first compound 0.03162 µM) | relative viability ([2]; first compound 0.1 µM) | relative viability ([3]; first compound 0.02 µM) | relative viability ([3]; first compound 0.2 µM) | relative viability ([3]; first compound 0.6325 µM) | relative viability ([3]; first compound 2 µM) | relative viability ([4]; first compound 0.02 µM) | relative viability ([4]; first compound 0.06325 µM) | relative viability ([4]; first compound 0.2 µM) | relative viability ([4]; first compound 0.6325 µM) | relative viability ([4]; first compound 2 µM) | relative viability ([3]; first compound 0.06325 µM)
NCI-H441 | 0.754 | 0.616 | 0.718 | 0.568 | 0.496 | 0.407 | 0.667 | 0.575 | 0.222 | 0.176 | 0.236 | 0.185 | 0.377 | 0.659 | 0.494 | 0.457 | 0.593 | 
NCI-H460 | 0.663 | 0.739 | 0.88 | 0.624 | 0.789 | 0.809 | 0.869 | 0.7 | 0.116 | 0.149 | 0.149 | 0.118 | 0.736 | 0.776 | 0.843 | 0.573 | 0.674 | 0.168
NCI-H520 | 0.256 | 0.339 | 0.3 | 0.252 | 0.944 | 0.912 | 1.1 | 0.843 | 0.221 | 0.231 | 0.291 | 0.238 | 0.9 | 0.799 | 1.04 | 0.992 | 1.16 | 0.2
NCI-H647 | 0.644 | 0.763 | 0.779 | 0.676 | 1.08 | 1.15 | 1.18 | 1.22 | 0.393 | 0.434 | 0.292 | 0.307 | 1.21 | 1.17 | 1.37 | 1.1 | 0.995 | 0.393
NCI-H650 | 0.581 | 0.661 | 0.485 | 0.532 | 0.919 | 0.916 | 0.828 | 0.926 |  | 0.346 | 0.319 | 0.334 |  | 0.841 | 0.793 | 0.567 | 0.875 | 0.315
NCI-H661 | 0.719 | 0.699 | 0.803 | 0.758 | 0.581 | 0.621 | 0.548 | 0.723 | 0.374 | 0.325 | 0.356 | 0.3 | 0.616 | 0.485 | 0.436 | 0.454 | 0.266 | 0.382
NCI-H727 | 0.759 | 0.581 | 0.641 | 0.541 | 0.399 | 0.277 | 0.269 | 0.258 | 0.65 | 0.653 | 0.618 | 0.557 | 0.259 | 0.207 | 0.278 | 0.256 | 0.236 | 
